From paper PMC10535219, “Discovery and Potential Utility of a Novel Non-Invasive Ocular Delivery Platform” (Pharmaceutics, 2023)
Read-outs that look alike come from different tables or passages of the source.

Tests used:
[1] = Biodisposition of JV-DE1 and JV-MD2 delivered via NIODP (periorbital skin) in non-human primates; format: in vivo, cynomolgus monkeys; details: for % Administered Dose, Retina: endogenous DHA subtracted; for Cmax / concentration at 0.5 h / concentration at 24 h / concentration at 3 h / concentration at 6 h: cynomolgus monkey, topical
Experimental: All experiments were performed at Medicilon. […] A pen brush was used to dose each formulation with three to four circular motions for even distribution. The doses of the test articles were selected based on their solubility/concentration with the maximum deliverable volume on the periorbital skin of the animals. The administered dose was calculated by the weight difference of the pen brush before and after administration. Animals were restrained from eye rubbing in restraint chairs for 2 h after dosing, with access to food and drink. A blood sample was collected from one of the study animals at pre-dosing. For every time point of 0.5, 3, 6, and 24 h post-dose, one animal was euthanized and the ocular tissues (upper eyelid, cornea, retina, and vitreous humor) of both eyes were collected. Plasma samples were collected before each euthanization.
For the convenience of tissue processing and sample extraction, only upper eyelids were collected to represent the entirety of the periorbital tissue. Ocular tissues were homogenized by adding a 9-fold volume of 50% methanol/H2O per gram of tissue. For the LC-MS/MS sample preparation, a 50 μL aliquot of plasma, aqueous humor, vitreous humor, or tissue homogenate was thoroughly mixed with a 250 μL extraction solution of CHCl3/EtOH (1:1); then, a 210 μL supernatant of the samples was transferred to a 96-well plate after centrifugation. The samples were evaporated in nitrogen gas (N2) until dried. Each sample was redissolved in 200 μL MeOH, of which 2 µL was injected for the LC-MS/MS analysis.
The LC system was the same as that described in Section 2. The MS analysis was performed using a Triple Quad 5500 with an ESI ion source, and the data acquisition and control system were Analyst 1.6.3 software from Applied Biosystems/MDS Sciex.
The LC/MS conditions for JV-DE1 are described in Supplementary Table S2. The LC conditions were as follows: ACQUITY UPLC ® BEH C18 1.7 μm, 2.1 mm × 50 mm; the mobile phase Column A, 0.1% formic acid in water; and Column B, 0.1% formic acid in acetonitrile. The flow rate was 0.6 ml/min, the column temperature was 50 °C, and the injection volume was 2 µL. The MS conditions were as follows: scan type, positive MRM; ion source, turbo spray; ionization model, ESI; nebulizer gas 1, 55 psi; gas 2, 55 psi; curtain gas, 40 psi; CAD, 10; ionspray voltage, 5500 V; and temperature, 550 °C.
The LC/MS conditions for JV-MD2 (DHA) are described in Supplementary Table S3. The LC conditions were as follows: ACQUITY UPLC® BEH C18 1.7 μm, 2.1 mm × 50 mm; the mobile phase Column A, […] NH4AC in H2O; and Column B, CAN. The flow rate was 0.5 mL/min, the column temperature was 40 °C, and the injection volume was 4 µL. The MS conditions were as follows: scan type, negative MRM; ion source, turbo spray; ionization model, ESI; nebulizer gas 1, 55 psi; gas 2, 55 psi; curtain gas, 40 psi; CAD, 9; ionspray voltage, 5500 V; and temperature, 550 °C.

[2] = parameters: method as in PMID 35250585; details: once-daily intragastric administration; mice; cited from earlier work
[3] = parameters: method as in PMID 32434914; details: dietary supplementation; mouse model with advanced AMD pathologies; cited from earlier work
photoreceptors = test system: photoreceptors; parameters: method as in PMID 23723389; details: rat retinal neuronal cultures; by activating RXRs; cited from earlier work
IL-1β production = test system: IL-1β production; parameters: method as in PMID 29352206; details: human THP-1 macrophage cell line; read-out: IC50 for reducing IL-1β production; cited from earlier work
[4] = JV-MD2, monkey, NIODP OS, 6568 μg/eye, 0.5 h
[5] = JV-MD2, monkey, NIODP OS, 6747 μg/eye, 24 h
[6] = JV-MD2, monkey, NIODP OS, 6768 μg/eye, 3 h
[7] = JV-MD2, monkey, NIODP OS, 7018 μg/eye, 6 h
[8] = JV-MD2, monkey, NIODP, within 30 min of dosing

What does the source list for CC/C=C\C/C=C\C/C=C\C/C=C\C/C=C\C/C=C\CCC(=O)O [JV-MD2, cis-4,7,10,13,16,19-docosahexaenoic acid]?
concentration in vitreous humor ([1]; JV-MD2, monkey, NIODP 6775 µg/eye, all timepoints except 24 h, LLOQ 0.5 µg/mL): below BLQ; % Administered Dose, Cornea [1, 4]: 0.0283%; % Administered Dose, Eyelid/periorbital skin [1, 4]: 0.4288%; % Administered Dose, Vitreous humor [1, 4]: 0.0000%; % Administered Dose, Retina [1, 4]: 0.0343%; % Administered Dose, Cornea [1, 5]: 0.0173%; % Administered Dose, Eyelid/periorbital skin [1, 5]: 0.0197%; % Administered Dose, Vitreous humor [1, 5]: 0.0236%; % Administered Dose, Retina [1, 5]: 0.0175%; % Administered Dose, Cornea [1, 6]: 0.0109%; % Administered Dose, Eyelid/periorbital skin [1, 6]: 0.3844%; % Administered Dose, Vitreous humor [1, 6]: 0.0000%; % Administered Dose, Retina [1, 6]: 0.0264%; % Administered Dose, Cornea [1, 7]: 0.0149%; % Administered Dose, Eyelid/periorbital skin [1, 7]: 0.0149%; % Administered Dose, Vitreous humor [1, 7]: 0.0000%; % Administered Dose, Retina [1, 7]: 0.0228%; maximum percentage of the administered dose, cornea [1, 8]: 0.0283%; maximum percentage of the administered dose, eyelid/periorbital skin [1, 8]: 0.4288%; maximum percentage of the administered dose, retina [1, 8]: 0.0343%; Cmax ([1]; cornea, JV-MD2, monkey, single dose about 7 mg via NIODP, read-out: Cmax in cornea): 66000 ng/g; Cmax ([1]; retina, JV-MD2, NHP, about 7 mg/eye via NIODP, read-out: retinal Cmax): ~338 µM; Cmax ([1]; retina, JV-MD2, monkey, single dose about 7 mg (6775 µg/eye) via NIODP, endogenous level 17 µg/g, read-out: Cmax in retina): 111000 ng/g; concentration at 0.5 h ([1]; cynomolgus, cornea of the dosed left eye (OS), JV-MD2, monkey, NIODP OS, 6568 μg/eye, 0.5 h, endogenous BLQ, read-out: Drug in OS Tissues, Cornea): 66000 ng/g; concentration at 24 h ([1]; cynomolgus, cornea of the dosed left eye (OS), JV-MD2, monkey, NIODP OS, 6747 μg/eye, 24 h, endogenous BLQ, read-out: Drug in OS Tissues, Cornea): 26000 ng/g; concentration at 3 h ([1]; cynomolgus, cornea of the dosed left eye (OS), JV-MD2, monkey, NIODP OS, 6768 μg/eye, 3 h, endogenous BLQ, read-out: Drug in OS Tissues, Cornea): 22000 ng/g; concentration at 6 h ([1]; cynomolgus, cornea of the dosed left eye (OS), JV-MD2, monkey, NIODP OS, 7018 μg/eye, 6 h, endogenous BLQ, read-out: Drug in OS Tissues, Cornea): 22000 ng/g; concentration at 0.5 h ([1]; cynomolgus, plasma, JV-MD2 21.5% w/w, monkey, NIODP periorbital skin OS, 6568 μg/eye, 0.5 h, pre-dose baseline 2, read-out: Drug in plasma): 2000 ng/mL; concentration at 24 h ([1]; cynomolgus, plasma, JV-MD2 21.5% w/w, monkey, NIODP periorbital skin OS, 6747 μg/eye, 24 h, pre-dose baseline 2, read-out: Drug in plasma): 1000 ng/mL; concentration at 3 h ([1]; cynomolgus, plasma, JV-MD2 21.5% w/w, monkey, NIODP periorbital skin OS, 6768 μg/eye, 3 h, pre-dose baseline 2, read-out: Drug in plasma): 3000 ng/mL; concentration at 6 h ([1]; cynomolgus, plasma, JV-MD2 21.5% w/w, monkey, NIODP periorbital skin OS, 7018 μg/eye, 6 h, pre-dose baseline 2, read-out: Drug in plasma): 2000 ng/mL; Cmax ([1]; cynomolgus, retina, 6775 µg per eye, JV-MD2, NHP, about 7 mg/eye via NIODP, read-out: retinal Cmax): 338 µM; concentration at 0.5 h ([1]; cynomolgus, retina, JV-MD2, monkey, NIODP OS, 6568 μg/eye, 0.5 h, endogenous DHA 17 µg/g, read-out: Drug in OS Tissues, Retina): 111000 ng/g; concentration at 24 h ([1]; cynomolgus, retina, JV-MD2, monkey, NIODP OS, 6747 μg/eye, 24 h, endogenous DHA 17 µg/g, read-out: Drug in OS Tissues, Retina): 47000 ng/g; concentration at 3 h ([1]; cynomolgus, retina, JV-MD2, monkey, NIODP OS, 6768 μg/eye, 3 h, endogenous DHA 17 µg/g, read-out: Drug in OS Tissues, Retina): 67000 ng/g; concentration at 6 h ([1]; cynomolgus, retina, JV-MD2, monkey, NIODP OS, 7018 μg/eye, 6 h, endogenous DHA 17 µg/g, read-out: Drug in OS Tissues, Retina): 79000 ng/g; concentration at 0.5 h ([1]; cynomolgus, upper eyelid (periorbital skin) of the dosed left eye (OS), JV-MD2, monkey, NIODP OS, 6568 μg/eye, 0.5 h, endogenous BLQ, read-out: Drug in OS Tissues, Eyelid/periorbital skin): 381000 ng/g; concentration at 24 h ([1]; cynomolgus, upper eyelid (periorbital skin) of the dosed left eye (OS), JV-MD2, monkey, NIODP OS, 6747 μg/eye, 24 h, endogenous BLQ, read-out: Drug in OS Tissues, Eyelid/periorbital skin): 16000 ng/g; concentration at 3 h ([1]; cynomolgus, upper eyelid (periorbital skin) of the dosed left eye (OS), JV-MD2, monkey, NIODP OS, 6768 μg/eye, 3 h, endogenous BLQ, read-out: Drug in OS Tissues, Eyelid/periorbital skin): 420000 ng/g; concentration at 6 h ([1]; cynomolgus, upper eyelid (periorbital skin) of the dosed left eye (OS), JV-MD2, monkey, NIODP OS, 7018 μg/eye, 6 h, endogenous BLQ, read-out: Drug in OS Tissues, Eyelid/periorbital skin): 11000 ng/g; concentration at 24 h ([1]; cynomolgus, vitreous humor, 6775 µg per eye, JV-MD2, monkey, NIODP 6775 µg/eye, 24 h post-dose, read-out: concentration in vitreous humor): 2000 ng/mL; concentration at 0.5 h ([1]; cynomolgus, vitreous humor, JV-MD2, monkey, NIODP OS, 6568 μg/eye, 0.5 h, BLQ given a value of 0, LLOQ 0.5 µg/mL, read-out: Drug in OS Tissues, Vitreous humor): 0 ng/g; concentration at 24 h ([1]; cynomolgus, vitreous humor, JV-MD2, monkey, NIODP OS, 6747 μg/eye, 24 h, read-out: Drug in OS Tissues, Vitreous humor): 2000 ng/g; concentration at 3 h ([1]; cynomolgus, vitreous humor, JV-MD2, monkey, NIODP OS, 6768 μg/eye, 3 h, BLQ given a value of 0, LLOQ 0.5 µg/mL, read-out: Drug in OS Tissues, Vitreous humor): 0 ng/g; concentration at 6 h ([1]; cynomolgus, vitreous humor, JV-MD2, monkey, NIODP OS, 7018 μg/eye, 6 h, BLQ given a value of 0, LLOQ 0.5 µg/mL, read-out: Drug in OS Tissues, Vitreous humor): 0 ng/g; laser-induced CNV formation [2]: effectively inhibited laser-induced CNV formation; effect on AMD pathologies [3]: alleviated most pathologies; protective effect on photoreceptors (photoreceptors): induced a protective effect; IC50 (IL-1β production): 4.6 µM
